Assay results as given in patent US7005449B2, “Tolterodine salts” (Pharmacia & Upjohn Company, priority 2002, dated 2006).
Blank lines part the entries; values can stand above or below the compound they belong to.

Assays:
[1] = Rotating disk dissolution of tolterodine salts; assay type: physicochemical; conditions: 25° C.; for Rotating disk dissolution rate (RDDR): pH 6, 0.05 M phosphate buffer
Description: Data was collected on the salts. Rotating disk dissolution data was collected at pH 6 in a 0.05 M phosphate buffer at 25° C. on a fiber optic apparatus.

[2] = Rotating disk dissolution of tolterodine salts; assay type: physicochemical; conditions: extrapolated from carbon chain length trend
[3] = traditional tablet administration; cited from earlier work
[4] = Equilibrium solubility of tolterodine salts (shaking excess salt 24 hours, RP-HPLC)
Description: The resultant solution is centrifuged at 5000 rpm for 30 min in a temperature-controlled centrifuge. The supernatant was diluted and analysed for tolterodine by reversed phase high performance liquid chromatography (RP-HPLC).

Compound: Cc1ccc(O)c(C(CCN(C(C)C)C(C)C)c2ccccc2)c1.O=C(O)c1cc2ccccc2c(Cc2c(O)c(C(=O)O)cc3ccccc23)c1O [pamoate, tolterodine pamoate]
Rotating disk dissolution rate (RDDR) [1]: <0.3 μg cm^−2s^−1
Rotating disk dissolution rate (RDDR) ([1]; listed as pamoate salt): less than the detection limit of the instrument

Compound: CCCCCCCCCCCCCCCC(=O)O.Cc1ccc(O)c(C(CCN(C(C)C)C(C)C)c2ccccc2)c1 (centres unmarked) [palmitic (16 C)]
predicted dissolution rate [2]: very low

Compound: Cc1ccc(O)c([C@H](CCN(C(C)C)C(C)C)c2ccccc2)c1 [tolterodine, 2-[(1R)-3-(diisopropylamino)-1-phenylpropyl]-4-methylphenol]
time of peak plasma concentration [3]: 1 to 2 h

Rotating disk dissolution rate (RDDR) [1]: 0.38 μg cm^−2s^−1
Compound: laurate

Compound: CCCCCCCCCCCCCC(=O)O.Cc1ccc(O)c(C(CCN(C(C)C)C(C)C)c2ccccc2)c1 (centres unmarked) [myristic (14 C)]
predicted dissolution rate [2]: very low

Compound: benzoate
Rotating disk dissolution rate (RDDR) [1]: 2.1 μg cm^−2s^−1

Compound: Cc1ccc(O)c([C@H](CCN(C(C)C)C(C)C)c2ccccc2)c1.O=C(O)C(O)C(O)C(=O)O [tartrate, tolterodine tartrate, reference compound]
rotating disk dissolution rate ([1]; pH 6 media): 14 μg cm^−2sec^−1
Rotating disk dissolution rate (RDDR) [1]: 14.0 μg cm^−2s^−1

Compound: maleate
Equilibrium solubility in buffer ([4]; 0.1 M phosphate buffer pH 7.4, 24 hours, room temperature): 4700 µg/mL
final pH in buffer ([4]; final pH of the buffer solubility sample): 6.9
final pH in water ([4]; final pH of the water solubility sample): 5.0
Equilibrium solubility in water ([4]; water, 24 hours, room temperature): 1500 µg/mL
Rotating disk dissolution rate (RDDR) [1]: 4.1 μg cm^−2s^−1

Compound: CCCCCCCCCC(=O)O.Cc1ccc(O)c([C@H](CCN(C(C)C)C(C)C)c2ccccc2)c1 [caprate]
Rotating disk dissolution rate (RDDR) [1]: 0.75 μg cm^−2s^−1

Compound: tolterodine heptanoate
Rotating disk dissolution rate (RDDR) [1]: 2.7 μg cm^−2s^−1

Rotating disk dissolution rate (RDDR) [1]: 2.6 μg cm^−2s^−1
Compound: fumarate
